In data set [1] the test system is sodium channel. The experiment in a line: Guanidine influx assay (14C-guanidine radiotracer flux, in vitro). Conditions: guanidine influx assay using a known cell line that expresses a sodium channel. The format is cell-based, human or rat. A digest of the protocol:
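Test agents at half-step dilutions around 1 μM are added to plated cells in low-sodium HEPES buffer, then an aconitine/14C-guanidine mixture; after ambient-temperature incubation, cells are washed and counted. IC50 comes from a sigmoidal fit.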

The target of data set [2] is CYP3A4 (Homo sapiens, UniProt P08684). The data set can be described thus: Cytochrome P450 (CYP450) Inhibition Assay, CYP3A4 (Vivid fluorescence, BOMCC substrate). Conditions: human, P450 Baculosomes (recombinant CYP3A4), probe BOMCC (Vivid substrate).
CYP3A4, sequence (P08684 whole entry): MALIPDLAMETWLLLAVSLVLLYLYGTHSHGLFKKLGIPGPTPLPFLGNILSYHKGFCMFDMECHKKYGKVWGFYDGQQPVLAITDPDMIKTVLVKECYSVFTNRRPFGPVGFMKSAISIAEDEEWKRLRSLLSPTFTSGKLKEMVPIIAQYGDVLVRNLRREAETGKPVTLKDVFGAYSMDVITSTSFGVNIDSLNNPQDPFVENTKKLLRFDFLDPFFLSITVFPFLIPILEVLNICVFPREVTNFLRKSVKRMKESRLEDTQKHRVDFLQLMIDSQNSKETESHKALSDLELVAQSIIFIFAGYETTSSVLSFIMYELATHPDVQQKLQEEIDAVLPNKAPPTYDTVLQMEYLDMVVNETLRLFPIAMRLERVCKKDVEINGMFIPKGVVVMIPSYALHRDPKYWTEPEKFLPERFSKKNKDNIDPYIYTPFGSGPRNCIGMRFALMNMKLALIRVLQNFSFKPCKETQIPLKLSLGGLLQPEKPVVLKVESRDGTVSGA

Results on 23 compounds are retold here after patent US8263606B2 (Xenon Pharmaceuticals Inc., priority 2008, dated 2012).

Some results are limits rather than exact numbers.

`Cc1cccc(C)c1NC(=O)c1ccc(CN2C(=O)C3(COc4cc5c(cc43)CCO5)c3ccccc32)cc1` (stereo not drawn) [Example 12.35, N-(2,6-dimethylphenyl)-4-[(2′-oxo-5,6-dihydrospiro[benzo[1,2-b:5,4-b′]difuran-3,3′-indol]-1′(2′H)-yl)methyl]benzamide] displayed a melting point of more than 250 °C. Further, in data set [1], the 50% inhibitory concentration (IC50) fell in the range of 1000 to 10000 nM. Besides, the inhibition at 10 µM in data set [2] is more than 50%.
For `O=C(Nc1cccc(F)c1)c1ccc(CN2C(=O)C3(COc4cc5c(cc43)CCO5)c3ccccc32)cc1` (stereo not drawn) [Example 12.36, N-(3-fluorophenyl)-4-[(2′-oxo-5,6-dihydrospiro[benzo[1,2-b:5,4-b′]difuran-3,3′-indol]-1′(2′H)-yl)methyl]benzamide], the melting point was more than 250 °C. Also, the IC50 in data set [1] lay in the range of 100 to 1000 nM. The inhibition at 10 µM in data set [2] was less than 50%.
The compound `Cc1ccc(NC(=O)c2ccc(CN3C(=O)C4(COc5cc6c(cc54)CCO6)c4ccccc43)cc2)c(C)c1` (stereo not drawn) [Example 12.37, N-(2,4-dimethylphenyl)-4-[(2′-oxo-5,6-dihydrospiro[benzo[1,2-b:5,4-b′]difuran-3,3′-indol]-1′(2′H)-yl)methyl]benzamide] displayed a melting point of 249 to 251 °C. Also, the IC50 in data set [1] is 100 to 1000 nM. Further, in data set [2], the inhibition at 10 µM was less than 50%.
`O=C(NCc1cccs1)c1ccc(CN2C(=O)C3(COc4cc5c(cc43)CCO5)c3ccccc32)cc1` (stereo not drawn) [Example 12.38, 4-[(2′-oxo-5,6-dihydrospiro[benzo[1,2-b:5,4-b′]difuran-3,3′-indol]-1′(2′H)-yl)methyl]-N-(thiophen-2-ylmethyl)benzamide] showed a melting point of 167 to 168 °C. Besides, the IC50 in data set [1] was 100 to 1000 nM. In addition, the inhibition at 10 µM in data set [2] was more than 50%.
As to `CCNC(=O)c1ccc(CN2C(=O)C3(COc4cc5c(cc43)CCO5)c3ccccc32)cc1` (stereo not drawn) [Example 12.39, N-ethyl-4-[(2′-oxo-5,6-dihydrospiro[benzo[1,2-b:5,4-b′]difuran-3,3′-indol]-1′(2′H)-yl)methyl]benzamide], the melting point was 190 to 191 °C. Moreover, the IC50 in data set [1] fell in the range of 100 to 1000 nM. Besides, the inhibition at 10 µM in data set [2] is more than 50%.
`COCCNC(=O)c1ccc(CN2C(=O)C3(COc4cc5c(cc43)CCO5)c3ccccc32)cc1` (stereo not drawn) [Example 12.40, N-(2-methoxyethyl)-4-[(2′-oxo-5,6-dihydrospiro[benzo[1,2-b:5,4-b′]difuran-3,3′-indol]-1′(2′H)-yl)methyl]benzamide] registered a melting point of 182 to 183 °C. In addition, in data set [1], the concentration for half-maximal inhibition (IC50) was in the range of 100 to 1000 nM. The inhibition at 10 µM in data set [2] was less than 50%.
For `CCOCCNC(=O)c1ccc(CN2C(=O)C3(COc4cc5c(cc43)CCO5)c3ccccc32)cc1` (stereo not drawn) [Example 12.41, N-(2-ethoxyethyl)-4-[(2′-oxo-5,6-dihydrospiro[benzo[1,2-b:5,4-b′]difuran-3,3′-indol]-1′(2′H)-yl)methyl]benzamide], in that order: 84 to 85 °C, 100 to 1000 nM and more than 50%.
As for `O=C(NC1CCC1)c1ccc(CN2C(=O)C3(COc4cc5c(cc43)CCO5)c3ccccc32)cc1` (stereo not drawn) [Example 12.42, N-cyclobutyl-4-[(2-oxo-5,6-dihydrospiro[benzo[1,2-b:5,4-b′]difuran-3,3-indol]-1(2H)-yl)methyl]benzamide], the melting point is more than 250 °C. The IC50 in data set [1] lay in the range of 100 to 1000 nM. Further, the inhibition at 10 µM in data set [2] was more than 50%.
`O=C(Nc1nccs1)c1ccc(CN2C(=O)C3(COc4cc5c(cc43)CCO5)c3ccccc32)cc1` (stereo not drawn) [Example 12.43, 4-[(2′-oxo-5,6-dihydrospiro[benzo[1,2-b:5,4-b′]difuran-3,3′-indol]-1′(2′H)-yl)methyl]-N-1,3-thiazol-2-ylbenzamide] showed a melting point of more than 250 °C. Further, in data set [1], the IC50 was 100 to 1000 nM. In data set [2], the inhibition at 10 µM is less than 50%.
For `Cc1c(F)cccc1NC(=O)c1ccc(CN2C(=O)C3(COc4cc5c(cc43)CCO5)c3ccccc32)cc1` (stereo not drawn) [Example 12.44, N-(3-fluoro-2-methylphenyl)-4-[(2′-oxo-5,6-dihydrospiro[benzo[1,2-b:5,4-b′]difuran-3,3′-indol]-1′(2′H)-yl)methyl]benzamide], in that order: 143 to 144 °C, 1000 to 10000 nM and less than 50%.
Consider `CCC(CC)CNC(=O)c1ccc(CN2C(=O)C3(COc4cc5c(cc43)CCO5)c3ccccc32)cc1` (stereo not drawn) [Example 12.45, N-(2-ethylbutyl)-4-[(2′-oxo-5,6-dihydrospiro[benzo[1,2-b:5,4-b′]difuran-3,3′-indol]-1′(2′H)-yl)methyl]benzamide], for which the melting point lay within 211 to 213 °C. In data set [1], the concentration for half-maximal inhibition (IC50) lay in the range of 1000 to 10000 nM. In addition, in data set [2], the inhibition at 10 µM was less than 50%.
Compound `CC(C)(C)CCNC(=O)CN1C(=O)C2(COc3cc4c(cc32)CCO4)c2ccccc21` (stereo not drawn) [Example 12.49, N-(3,3-dimethylbutyl)-2-(2′-oxo-5,6-dihydrospiro[benzo[1,2-b:5,4-b′]difuran-3,3′-indol]-1′(2′H)-yl)acetamide] came in with a melting point of 161 to 163 °C. Further, the IC50 in data set [1] lay within 100 to 1000 nM. The inhibition at 10 µM in data set [2] was more than 50%.
`CC(C)OCCCNC(=O)CN1C(=O)C2(COc3cc4c(cc32)CCO4)c2ccccc21` (stereo not drawn) [Example 12.50, N-[3-(1-methylethoxy)propyl]-2-(2′-oxo-5,6-dihydrospiro[benzo[1,2-b:5,4-b′]difuran-3,3′-indol]-1′(2′H)-yl)acetamide]: the melting point fell in the range of 149 to 151 °C. The IC50 in data set [1] was 100 to 1000 nM. Further, the inhibition at 10 µM in data set [2] is more than 50%.
For `CCCNC(=O)CN1C(=O)C2(COc3cc4c(cc32)CCO4)c2ccccc21` (stereo not drawn) [Example 12.51, 2-(2′-oxo-5,6-dihydrospiro[benzo[1,2-b:5,4-b′]difuran-3,3′-indol]-1′(2′H)-yl)-N-propylacetamide] the same measures were 207 to 209 °C, 100 to 1000 nM and more than 50%.
The compound `CN(C(=O)CN1C(=O)C2(COc3cc4c(cc32)CCO4)c2ccccc21)c1ccccc1` (stereo not drawn) [Example 12.52, N-methyl-2-(2′-oxo-5,6-dihydrospiro[benzo[1,2-b:5,4-b′]difuran-3,3′-indol]-1′(2′H)-yl)-N-phenylacetamide] came in with a melting point of 234 to 238 °C. Further, the half-maximal inhibitory concentration (IC50) in data set [1] is 100 to 1000 nM. Besides, the inhibition at 10 µM in data set [2] is more than 50%.
`Cc1ccc(C)c(NC(=O)CN2C(=O)C3(COc4cc5c(cc43)CCO5)c3ccccc32)c1` (stereo not drawn) [Example 12.53, N-(2,5-dimethylphenyl)-2-(2′-oxo-5,6-dihydrospiro[benzo[1,2-b:5,4-b′]difuran-3,3′-indol]-1′(2′H)-yl)acetamide] had a melting point of 250 to 252 °C. The concentration for half-maximal inhibition (IC50) in data set [1] lay in the range of 1000 to 10000 nM. In data set [2], the inhibition at 10 µM is less than 50%.
Compound `Cc1ccc(NC(=O)CN2C(=O)C3(COc4cc5c(cc43)CCO5)c3ccccc32)c(C)c1` (stereo not drawn) [Example 12.54, N-(2,4-dimethylphenyl)-2-(2′-oxo-5,6-dihydrospiro[benzo[1,2-b:5,4-b′]difuran-3,3′-indol]-1′(2′H)-yl)acetamide] showed a melting point of 277 to 279 °C. The IC50 in data set [1] fell in the range of 1000 to 10000 nM. Further, the inhibition at 10 µM in data set [2] is more than 50%.
For `Cc1cccc(NC(=O)CN2C(=O)C3(COc4cc5c(cc43)CCO5)c3ccccc32)c1C` (stereo not drawn) [Example 12.55, N-(2,3-dimethylphenyl)-2-(2′-oxo-5,6-dihydrospiro[benzo[1,2-b:5,4-b′]difuran-3,3′-indol]-1′(2′H)-yl)acetamide], in that order: 251 to 253 °C, 1000 to 10000 nM and more than 50%.
`Cc1cccc(C)c1NC(=O)CN1C(=O)C2(COc3cc4c(cc32)CCO4)c2ccccc21` (stereo not drawn) [Example 12.56, N-(2,6-dimethylphenyl)-2-(2′-oxo-5,6-dihydrospiro[benzo[1,2-b:5,4-b′]difuran-3,3′-indol]-1′(2′H)-yl)acetamide] returned a melting point of 261 to 262 °C. Moreover, the 50% inhibitory concentration (IC50) in data set [1] lay in the range of 1000 to 10000 nM. In addition, in data set [2], the inhibition at 10 µM was more than 50%.
For `CNC(=O)c1cc(CN2C(=O)C3(COc4cc5c(cc43)OCO5)c3ccccc32)oc1C(F)(F)F` (stereo not drawn) [Example 12.57, N-methyl-5-[(2′-oxospiro[furo[2,3-f][1,3]benzodioxole-7,3′-indol]-1′(2′H)-yl)methyl]-2-(trifluoromethyl)furan-3-carboxamide], the melting point is 202 to 203 °C. The IC50 in data set [1] fell in the range of 100 to 1000 nM. Also, the inhibition at 10 µM in data set [2] was more than 50%.
For `NC(=O)c1cc(CN2C(=O)C3(COc4cc5c(cc43)OCO5)c3ccccc32)oc1C(F)(F)F` (stereo not drawn) [Example 12.58, 5-[(2′-oxospiro[furo[2,3-f][1,3]benzodioxole-7,3′-indol]-1′(2′H)-yl)methyl]-2-(trifluoromethyl)furan-3-carboxamide], in that order: 172 to 174 °C, 1 to 100 nM and more than 50%.
`CN(C)C(=O)c1cc(CN2C(=O)C3(COc4cc5c(cc43)OCO5)c3ccccc32)oc1C(F)(F)F` (stereo not drawn) [Example 12.59, N,N-dimethyl-5-[(2′-oxospiro[furo[2,3-f][1,3]benzodioxole-7,3′-indol]-1′(2′H)-yl)methyl]-2-(trifluoromethyl)furan-3-carboxamide] returned a melting point of 96 to 98 °C. Besides, the half-inhibitory concentration (IC50) in data set [1] is 100 to 1000 nM. Also, the inhibition at 10 µM in data set [2] was more than 50%.
`NC(=O)c1ccc(CN2C(=O)C3(COc4cc5c(cc43)OCCO5)c3ccccc32)cc1` (stereo not drawn) [Example 12.60, 4-[(2′-oxo-2,3-dihydrospiro[furo[2,3-g][1,4]benzodioxine-8,3′-indol]-1′(2′H)-yl)methyl]benzamide] showed a melting point of 236 to 238 °C. Also, the IC50 in data set [1] lay within 1 to 100 nM. Further, in data set [2], the inhibition at 10 µM was more than 50%.

In general, IC50 refers to the concentration that gives 50% inhibition. As usually defined, the melting point is the temperature, or range, at which the solid turns liquid. One may read the inhibition as how much of the control response was suppressed.
